Results taken from ChEMBL document CHEMBL3860037, “Design, synthesis and biological characterization of a new class of osteogenic (1H)-quinolone derivatives” (Eur J Med Chem, 2016).
The source made the active and inactive calls. The rule behind the calls is not given here.

What was measured:
[1] = target: Protein smoothened (Mus musculus) (UniProt P56726); assay: Activity at Smo in mouse C3H10T1/2 cells assessed as induction of cell differentiation into osteoblast at 10 uM incubated for 6 days by alkaline phosphatase assay relative to GSA-10; format: cell-based; settings: C3H 10T1/2
Sequence of Protein smoothened (Mus musculus) (P56726 whole entry): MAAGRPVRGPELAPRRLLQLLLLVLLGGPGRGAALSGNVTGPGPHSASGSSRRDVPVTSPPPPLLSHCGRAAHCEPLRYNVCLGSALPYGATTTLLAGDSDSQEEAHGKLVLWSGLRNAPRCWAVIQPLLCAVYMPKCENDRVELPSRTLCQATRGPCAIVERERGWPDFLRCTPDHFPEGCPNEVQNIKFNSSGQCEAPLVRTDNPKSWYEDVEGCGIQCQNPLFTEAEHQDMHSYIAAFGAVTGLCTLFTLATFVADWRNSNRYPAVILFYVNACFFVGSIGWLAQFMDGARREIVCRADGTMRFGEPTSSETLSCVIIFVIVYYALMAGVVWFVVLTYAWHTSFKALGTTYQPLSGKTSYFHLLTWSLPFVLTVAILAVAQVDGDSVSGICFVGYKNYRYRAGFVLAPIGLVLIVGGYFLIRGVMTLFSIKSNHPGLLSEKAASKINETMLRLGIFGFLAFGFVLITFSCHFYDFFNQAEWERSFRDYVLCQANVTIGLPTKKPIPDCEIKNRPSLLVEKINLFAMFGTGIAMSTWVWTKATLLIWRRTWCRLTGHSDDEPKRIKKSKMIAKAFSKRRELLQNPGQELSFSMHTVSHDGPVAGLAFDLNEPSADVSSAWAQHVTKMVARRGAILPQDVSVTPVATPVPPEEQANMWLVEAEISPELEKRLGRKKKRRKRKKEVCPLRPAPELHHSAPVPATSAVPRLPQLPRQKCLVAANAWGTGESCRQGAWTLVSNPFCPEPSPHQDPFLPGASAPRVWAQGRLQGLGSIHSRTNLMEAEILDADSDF

[2] = target: Protein smoothened (Mus musculus) (UniProt P56726); assay: Agonist activity at Smo in mouse C3H10T1/2 cells assessed as effect on Gli1 expression at 10 uM after 48 hrs by RT-PCR method relative to vehicle-treated control; format: cell-based; settings: C3H 10T1/2
[3] = target: Protein smoothened (Mus musculus) (UniProt P56726); assay: Antagonist activity at Smo in mouse NIH/3T3 cells transfected with Gli-dependent firefly luciferase reporter assessed as inhibition of SAG-induced maximal stimulation of Gli transcription factor at 1 uM incubated for 40 hrs relative to control; format: cell-based
[4] = target: Protein smoothened (Mus musculus) (UniProt P56726); assay: Activity at Smo in mouse C3H10T1/2 cells assessed as induction of cell differentiation into osteoblast at 1 uM in presence of phosphodiesterase inhibitor IBMX incubated for 6 days by alkaline phosphatase assay; format: cell-based; settings: C3H 10T1/2
[5] = target: Protein smoothened (Mus musculus) (UniProt P56726); assay: Agonist activity at Smo in mouse C3H10T1/2 cells assessed as effect on Gli2 expression at 10 uM after 48 hrs by RT-PCR method relative to vehicle-treated control; format: cell-based; settings: C3H 10T1/2
[6] = target: Protein smoothened (Mus musculus) (UniProt P56726); assay: Agonist activity at Smo in mouse C3H10T1/2 cells assessed as effect on Smo expression at 10 uM after 48 hrs by RT-PCR method relative to vehicle-treated control; format: cell-based; settings: C3H 10T1/2
[7] = target: Protein smoothened (Mus musculus) (UniProt P56726); assay: Agonist activity at Smo in mouse C3H10T1/2 cells assessed as effect on Gli3 expression at 10 uM after 48 hrs by RT-PCR method relative to vehicle-treated control; format: cell-based; settings: C3H 10T1/2
[8] = target: Protein smoothened (Mus musculus) (UniProt P56726); assay: Agonist activity at Smo in mouse C3H10T1/2 cells assessed as effect on Ptc1 expression at 10 uM after 48 hrs by RT-PCR method relative to vehicle-treated control; format: cell-based; settings: C3H 10T1/2
[9] = target: T1, Coelenterazine h 2-monooxygenase (Renilla reniformis) (UniProt P27652); assay: Induction of Renilla reniformis luciferase activity at 10 uM relative to control
T1 sequence (whole entry): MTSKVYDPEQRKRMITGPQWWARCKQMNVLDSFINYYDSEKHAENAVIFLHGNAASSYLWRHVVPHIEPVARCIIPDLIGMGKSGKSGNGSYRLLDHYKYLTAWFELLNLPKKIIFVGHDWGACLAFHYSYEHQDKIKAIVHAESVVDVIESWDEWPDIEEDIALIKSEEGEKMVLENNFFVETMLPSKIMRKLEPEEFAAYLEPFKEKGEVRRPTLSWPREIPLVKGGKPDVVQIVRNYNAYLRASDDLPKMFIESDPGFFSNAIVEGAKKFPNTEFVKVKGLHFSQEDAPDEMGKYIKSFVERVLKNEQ

[10] = target: Protein smoothened (Mus musculus) (UniProt P56726); assay: Activity at Smo in mouse C3H10T1/2 cells assessed as induction of cell differentiation into osteoblast incubated for 6 days by alkaline phosphatase assay; format: cell-based; settings: C3H 10T1/2
[11] = target: Protein smoothened (Mus musculus) (UniProt P56726); assay: Activity at Smo in mouse C3H10T1/2 cells assessed as induction of cell differentiation into osteoblast at 1 uM in presence of adenylate cyclase activator forskolin incubated for 6 days by alkaline phosphatase assay; format: cell-based; settings: C3H 10T1/2
[12] = target: Protein smoothened (Mus musculus) (UniProt P56726); assay: Agonist activity at Smo in mouse C3H10T1/2 cells assessed as effect on Ptc1 expression at 1 uM after 48 hrs by RT-PCR method relative to vehicle-treated control; format: cell-based; settings: C3H 10T1/2
[13] = target: Protein smoothened (Mus musculus) (UniProt P56726); assay: Induction of Smo translocation to primary cilium in mouse NIH/3T3 cells at 1 uM after overnight incubation by DAPI staining-based immunofluorescence assay relative to control; format: cell-based
[14] = target: Protein smoothened (Mus musculus) (UniProt P56726); assay: Agonist activity at Smo in mouse C3H10T1/2 cells assessed as induction of cell differentiation into osteoblast incubated for 6 days by alkaline phosphatase assay; format: cell-based; settings: C3H 10T1/2
[15] = target: Protein smoothened (Mus musculus) (UniProt P56726); assay: Agonist activity at Smo in mouse C3H10T1/2 cells assessed as effect on Gli3 expression at 1 uM after 48 hrs by RT-PCR method relative to vehicle-treated control; format: cell-based; settings: C3H 10T1/2
[16] = target: Protein smoothened (Mus musculus) (UniProt P56726); assay: Agonist activity at Smo in mouse C3H10T1/2 cells assessed as effect on Smo expression at 1 uM after 48 hrs by RT-PCR method relative to vehicle-treated control; format: cell-based; settings: C3H 10T1/2
[17] = target: Protein smoothened (Mus musculus) (UniProt P56726); assay: Agonist activity at Smo in mouse C3H10T1/2 cells assessed as induction of cell differentiation into osteoblast at 10 uM incubated for 6 days by alkaline phosphatase assay relative to GSA-10; format: cell-based; settings: C3H 10T1/2
Protein smoothened = Protein smoothened (Mus musculus, UniProt P56726); assay: Agonist activity at Smo in mouse NIH/3T3 cells transfected with Gli-dependent firefly luciferase reporter assessed as stimulation of Gli transcription factor; format: cell-based
Sequence of Protein smoothened (P56726 whole entry): as the sequence (P56726 whole entry) above

[18] = target: Protein smoothened (Rattus norvegicus) (UniProt P97698); assay: Agonist activity at Smo in cerebellar granule cell precursors isolated from rat at postnatal day 8 assessed as stimulation of proliferation by [3H]-thymidine incorporation assay
Sequence of Protein smoothened (Rattus norvegicus) (P97698 whole entry): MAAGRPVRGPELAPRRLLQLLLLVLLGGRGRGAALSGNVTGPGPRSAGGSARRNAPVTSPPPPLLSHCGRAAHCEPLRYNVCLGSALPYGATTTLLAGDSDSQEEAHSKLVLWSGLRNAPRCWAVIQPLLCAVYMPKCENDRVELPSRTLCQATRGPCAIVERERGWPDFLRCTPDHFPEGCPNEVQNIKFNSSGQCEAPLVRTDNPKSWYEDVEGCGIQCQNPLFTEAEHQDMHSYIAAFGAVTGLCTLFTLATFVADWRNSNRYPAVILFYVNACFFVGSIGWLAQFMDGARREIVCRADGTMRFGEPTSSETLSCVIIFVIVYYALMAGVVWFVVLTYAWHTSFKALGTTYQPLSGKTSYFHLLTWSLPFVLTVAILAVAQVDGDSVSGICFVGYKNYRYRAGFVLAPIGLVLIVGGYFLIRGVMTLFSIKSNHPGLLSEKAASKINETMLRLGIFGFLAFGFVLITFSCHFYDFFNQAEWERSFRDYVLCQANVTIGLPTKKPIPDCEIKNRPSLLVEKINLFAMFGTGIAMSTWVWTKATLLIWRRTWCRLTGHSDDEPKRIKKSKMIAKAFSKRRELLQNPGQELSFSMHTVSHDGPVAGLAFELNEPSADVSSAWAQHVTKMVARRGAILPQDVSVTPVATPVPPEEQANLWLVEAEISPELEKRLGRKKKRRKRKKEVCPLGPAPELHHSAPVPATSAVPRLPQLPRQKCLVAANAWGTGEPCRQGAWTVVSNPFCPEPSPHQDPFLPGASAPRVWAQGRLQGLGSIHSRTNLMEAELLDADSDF

[19] = target: Protein smoothened (Mus musculus) (UniProt P56726); assay: Agonist activity at Smo in mouse C3H10T1/2 cells assessed as effect on Gli2 expression at 1 uM after 48 hrs by RT-PCR method relative to vehicle-treated control; format: cell-based; settings: C3H 10T1/2
[20] = target: Protein smoothened (Mus musculus) (UniProt P56726); assay: Agonist activity at Smo in mouse C3H10T1/2 cells assessed as effect on Gli1 expression at 1 uM after 48 hrs by RT-PCR method relative to vehicle-treated control; format: cell-based; settings: C3H 10T1/2
[21] = target: Protein smoothened (Mus musculus) (UniProt P56726); assay: Agonist activity at Smo in mouse NIH/3T3 cells transfected with Gli-dependent firefly luciferase reporter assessed as stimulation of Gli transcription factor incubated for 40 hrs; format: cell-based
[22] = target: Protein smoothened (Mus musculus) (UniProt P56726); assay: Activity at Smo in mouse C3H10T1/2 cells assessed as induction of cell differentiation into osteoblast at 0.3 uM in presence of phosphodiesterase inhibitor IBMX incubated for 6 days by alkaline phosphatase assay; format: cell-based; settings: C3H 10T1/2
[23] = target: Protein smoothened (Mus musculus) (UniProt P56726); assay: Activity at Smo in mouse C3H10T1/2 cells assessed as induction of cell differentiation into osteoblast at 0.3 uM in presence of adenylate cyclase activator forskolin incubated for 6 days by alkaline phosphatase assay; format: cell-based; settings: C3H 10T1/2
[24] = target: Protein smoothened (Mus musculus) (UniProt P56726); assay: Potency index, ratio of GSA-10 EC50 to compound EC50 for activity at Smo in mouse C3H10T1/2 cells assessed as induction of cell differentiation into osteoblast; format: cell-based; settings: C3H 10T1/2

CCCOC(=O)c1ccc(NC(=O)c2c(O)c3ccccc3n(Cc3ccccc3)c2=O)cc1
max activation [1]: 7%

CCCCCCn1c(=O)c(C(=O)Nc2ccc(C(=O)OCC)cc2)c(O)c2ccccc21
max activation [1]: 62%

CCCOC(=O)c1ccc(NC(=O)c2c(O)c3ccccc3n(C)c2=O)cc1
max activation [1]: 1%

CCCCCCn1c(=O)c(C(=O)Nc2ccc(C(=O)OCCC)cc2)c(O)c2ccccc21
fold change (FC) [2]: 0.05 | inhibition [3]: 31% | Activity [4]: Active | fold change (FC) [5]: 1.35 | fold change (FC) [6]: 0.8 | fold change (FC) [7]: 0.85 | fold change (FC) [8]: 0.33 | Activity [9]: < 20% | Activity [10]: Dose-dependent effect | Activity [11]: Active

CCCCCn1c(=O)c(C(=O)Nc2ccc(C(=O)OCCC)cc2)c(O)c2ccccc21
max activation [1]: 138%

CCCCCn1c(=O)c(C(=O)Nc2ccc([N+](=O)[O-])cc2)c(O)c2ccccc21
max activation [1]: 5%

CCCCCCn1c(=O)c(C(=O)Nc2ccc(C(=O)OCc3ccccc3)cc2)c(O)c2ccccc21
max activation [1]: 47%

CCCOC(=O)c1ccc(NC(=O)c2c(O)c3cc(C)ccc3n(CCC)c2=O)cc1
max activation [1]: 85%

CCCCCCn1c(=O)c(C(=O)Nc2cccc(C(=O)OCCC)c2C(F)(F)F)c(O)c2ccccc21
max activation [1]: 1.4%

CCCCCCn1c(=O)c(C(=O)Nc2cc(C)cc(C(=O)OCCC)c2)c(O)c2ccccc21
max activation [1]: 3%

CCCCn1c(=O)c(C(=O)Nc2ccc(C(=O)OCCC)cc2)c(O)c2ccccc21
max activation [1]: 135%

CCCOC(=O)c1ccc(NC(=O)c2c(O)c3ccccc3n(CCC)c2=O)cc1
max activation [1]: 105%

CCCCCCn1c(=O)c(C(=O)Nc2ccc(C(=O)OCCC)c(Cl)c2)c(O)c2ccccc21
max activation [1]: 11%

CCCCCCn1c(=O)c(C(=O)Nc2cccc(C(=O)OC(C)(C)C)c2)c(O)c2ccccc21
max activation [1]: 1.3%

CCCCCc1nc2ccccc2c(=O)n1NC(=O)c1c(O)c2ccccc2n(CC)c1=O
max activation [1]: 5%

CCCCCCn1c(=O)c(C(=O)Nc2ccc(OCC)cc2)c(O)c2ccccc21
max activation [1]: 1%

CCCCCCn1c(=O)c(C(=O)Nc2ccc(C(=O)OC(C)(C)C)cc2)c(O)c2ccccc21
max activation [1]: 69%

C=CCn1c(=O)c(C(=O)Nc2ccc(C(=O)OCCC)cc2)c(O)c2ccccc21
max activation [1]: 22%

CCCCCCn1c(=O)c(C(=O)Nc2cccc(C(=O)OCCC)c2)c(O)c2ccccc21
max activation [1]: 2%

CCCOC(=O)c1ccc(NC(=O)c2c(O)c3cccc4c3n(c2=O)CCC4)cc1
max activation [1]: 38%

CCCOC(=O)c1ccc(NC(=O)c2c(O)c3cc(F)ccc3n(CCC)c2=O)cc1
max activation [1]: 98%

CN[C@H]1CC[C@H](N(Cc2cccc(-c3ccncc3)c2)C(=O)c2sc3ccccc3c2Cl)CC1
fold change (FC) [12]: 5.32 | Activity [13]: > 60% | Activity [14]: Dose-dependent effect | fold change (FC) [15]: 0.72 | fold change (FC) [16]: 0.9 | max activation [17]: 75% | Activity [9]: < 20% | EC50 (Protein smoothened): 30 nM | Activity [18]: Active | fold change (FC) [19]: 1.24 | fold change (FC) [20]: 7.83 | Activity [21]: Active

CCCCCn1c(=O)c(C(=O)Nc2ccc([N+](=O)[O-])cc2O)c(O)c2ccccc21
max activation [1]: 3%

CCCCCCn1c(=O)c(C(=O)Nc2ccc(C(=O)OCCCC)cc2)c(O)c2ccccc21
max activation [1]: 88%

CCCCCn1c(=O)c(C(=O)Nc2ccc(C(=O)OCC)cc2)c(O)c2ccccc21
max activation [1]: 76%

CCCCCCn1c(=O)c(C(=O)Nc2nc(CC(=O)OCC)cs2)c(O)c2ccccc21
max activation [1]: 3%

CCCCCCn1c(=O)c(C(=O)Nc2ccc(C(N)=O)cc2)c(O)c2ccccc21
max activation [1]: 1%

CCCCCCn1c(=O)c(C(=O)Nc2ncc([N+](=O)[O-])s2)c(O)c2ccccc21
max activation [1]: 3%

CCCCCCn1c(=O)c(C(=O)Nc2ccc(C(=O)O)cc2)c(O)c2ccccc21
Activity [22]: Active | fold change (FC) [2]: 0.05 | inhibition [3]: 26% | fold change (FC) [5]: 1.63 | fold change (FC) [6]: 0.92 | fold change (FC) [7]: 0.98 | fold change (FC) [8]: 0.26 | Activity [9]: < 20% | Activity [10]: Dose-dependent effect | max activation [1]: 137% | Activity [23]: Active | Ratio EC50 [24]: 2

CCOC(=O)c1ccc(NC(=O)c2c(O)c3ccccc3n(Cc3ccccc3)c2=O)cc1
max activation [1]: 4%

CCCOC(=O)c1ccc(NC(=O)c2c(O)c3cc(Cl)ccc3n(CCC)c2=O)cc1
max activation [1]: 41%

CCCCCCn1c(=O)c(C(=O)Nc2ccc(C(=O)NCCC)cc2)c(O)c2ccccc21
max activation [1]: 1.6%

CCCCCCn1c(=O)c(C(=O)Nc2ccc(C(=O)NCCCC)cc2)c(O)c2ccccc21
max activation [1]: 92%

CCCCCn1c(=O)c(C(=O)Nc2ccc(C(=O)OCCCC)cc2)c(O)c2ccccc21
max activation [1]: 123%

CCCOC(=O)c1ccc(NC(=O)c2c(O)c3cc(OC)c(OC)cc3n(CCC)c2=O)cc1
Activity [22]: Active | fold change (FC) [2]: 0.04 | inhibition [3]: 54% | fold change (FC) [5]: 1.49 | fold change (FC) [6]: 0.81 | fold change (FC) [7]: 0.86 | fold change (FC) [8]: 0.27 | Activity [9]: < 20% | Activity [10]: Dose-dependent effect | max activation [1]: 138% | Activity [23]: Active | Ratio EC50 [24]: 3

CCCCCCn1c(=O)c(C(=O)Nc2cccc(C(=O)OCC)c2)c(O)c2ccccc21
max activation [1]: 1.7%

CCCCCCn1c(=O)c(C(=O)Nc2ccc(C(=O)OC(C)C)cc2)c(O)c2ccccc21
max activation [1]: 33%

c1ccc2c(Oc3nc(Nc4ccc(N5CCOCC5)cc4)c4ncn(C5CCCCC5)c4n3)cccc2c1
max activation [1]: 78%
